Data set [1] deals with MDA-MB-231. Put plainly: Antitumor activity against luciferase-tagged human MDA-MB-231 cells xenografted in BALB/c mouse assessed as induction of tumor suppression at 10 mg/kg/3 days, ip measured after 50 days. In kind it is functional, organism-based. The following applies: time 50.0 day. For orientation: Xenograft models place foreign cells or tissue in a host animal.
Data set [2] has as its system MDA-MB-231. Briefly: Antitumor activity against luciferase-tagged human MDA-MB-231 cells xenografted in BALB/c mouse assessed as induction of delayed lung metastasis at 10 mg/kg/3 days, ip measured after 50 days. In kind it is functional, organism-based. The settings on record: time 50.0 day.
Data set [3] has as its system MDA-MB-231. Put plainly: Antitumor activity against luciferase-tagged human MDA-MB-231 cells xenografted in BALB/c mouse assessed as reduction in number of metastatic foci in lungs at 10 mg/kg/3 days, ip measured after 50 days by histological analysis. In kind it is functional, organism-based. The settings on record: time 50.0 day.
In data set [4] the test system is MDA-MB-231. Briefly: Antitumor activity against luciferase-tagged human MDA-MB-231 cells xenografted in BALB/c mouse assessed as reduction in metastatic nodules in lymph node at 10 mg/kg/3 days, ip measured after 50 days by H and E staining based histological analysis. In kind it is functional, organism-based. The settings on record: time 50.0 day.
Data set [5] concerns MDA-MB-231. Briefly: Antiangiogenesis activity against luciferase-tagged human MDA-MB-231 cells xenografted in BALB/c mouse assessed as reduction in number of vessels surrounding tumor nodules by measuring CD31 expression at 10 mg/kg/3 days, ip measured after 50 days by immunostaining. Type of data set: functional, organism-based. The following applies: time 50.0 day.
For data set [6], the system named is MDA-MB-231. Put plainly: Antiangiogenesis activity against luciferase-tagged human MDA-MB-231 cells xenografted in BALB/c mouse assessed as reduction in cell proliferation by measuring Ki67 expression at 10 mg/kg/3 days, ip measured after 50 days by immunostaining. In kind it is functional, organism-based. The following applies: time 50.0 day.
Data set [7] deals with MDA-MB-231. Briefly: Inhibition of Sialyltransferase in human MDA-MB-231 cells assessed as decrease p-talin-1 association with integrins beta1 and beta 3 after 48 hrs by immunofluorescence and coimmunoprecipitation assay. Type of data set: cell-based.
Data set [8] deals with T1, CMP-N-acetylneuraminate-beta-1,4-galactoside alpha-2,3-sialyltransferase (Rattus norvegicus, UniProt Q02734).
T1 sequence (Q02734 whole entry): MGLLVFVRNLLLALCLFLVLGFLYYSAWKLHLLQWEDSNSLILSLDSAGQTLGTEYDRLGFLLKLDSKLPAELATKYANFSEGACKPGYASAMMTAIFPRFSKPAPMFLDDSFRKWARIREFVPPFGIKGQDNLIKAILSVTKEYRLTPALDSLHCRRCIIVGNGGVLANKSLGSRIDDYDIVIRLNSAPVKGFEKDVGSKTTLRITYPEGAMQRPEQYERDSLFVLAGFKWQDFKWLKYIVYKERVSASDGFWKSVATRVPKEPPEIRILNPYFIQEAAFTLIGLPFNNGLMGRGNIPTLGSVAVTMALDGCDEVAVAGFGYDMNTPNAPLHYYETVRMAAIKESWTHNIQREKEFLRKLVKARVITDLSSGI
Briefly: Inhibition of rat alpha-2,3-N-ST3GALIII assessed as reduction in sialylated-product formation using Gal-beta1-4Glc and CMP-NeuSAc incubated for 1.5 hrs by reverse-phase HPLC analysis.

Data set [9] addresses T2, Beta-galactoside alpha-2,6-sialyltransferase 1 (Homo sapiens, UniProt P15907).
T2 sequence (P15907 whole entry): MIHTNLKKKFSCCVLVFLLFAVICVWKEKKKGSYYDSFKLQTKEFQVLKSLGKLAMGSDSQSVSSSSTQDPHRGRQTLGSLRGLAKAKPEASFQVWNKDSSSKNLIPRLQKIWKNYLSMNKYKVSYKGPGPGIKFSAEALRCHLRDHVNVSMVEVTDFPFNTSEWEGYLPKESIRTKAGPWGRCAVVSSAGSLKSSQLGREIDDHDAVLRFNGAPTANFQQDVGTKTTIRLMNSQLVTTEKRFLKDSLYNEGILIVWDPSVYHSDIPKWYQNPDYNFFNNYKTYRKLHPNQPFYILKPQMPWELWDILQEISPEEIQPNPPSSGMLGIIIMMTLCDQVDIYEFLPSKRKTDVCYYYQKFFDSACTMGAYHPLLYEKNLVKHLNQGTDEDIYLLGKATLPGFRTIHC
Briefly: Inhibition of human alpha-2,6-ST6GAL1 assessed as reduction in sialylated-product formation using Gal-beta1-4GlcNac and CMP-NeuSAc incubated for 15 mins by reverse-phase HPLC analysis.

The target of data set [10] is T3, Sialyltransferase ST3Gal-I (Rattus norvegicus) (UniProt Q6H8N0).
T3 sequence (whole entry): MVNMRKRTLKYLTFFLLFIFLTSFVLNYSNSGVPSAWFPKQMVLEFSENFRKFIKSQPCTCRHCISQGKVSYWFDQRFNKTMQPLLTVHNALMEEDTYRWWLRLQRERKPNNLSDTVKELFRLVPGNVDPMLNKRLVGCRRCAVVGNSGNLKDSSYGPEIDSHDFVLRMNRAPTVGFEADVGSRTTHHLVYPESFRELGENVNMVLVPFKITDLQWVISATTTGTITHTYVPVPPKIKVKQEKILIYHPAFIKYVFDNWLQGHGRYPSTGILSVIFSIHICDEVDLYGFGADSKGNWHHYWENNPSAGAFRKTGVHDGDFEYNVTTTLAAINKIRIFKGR
Briefly: Inhibition of rat alpha-2,3-O-ST3GALI assessed as reduction in sialylated-product formation at 500 uM using p-nitrophenyl T-antigen and CMP-NeuSAc incubated for 15 mins by reverse-phase HPLC analysis relative to control.

The target of data set [11] is T3, Sialyltransferase ST3Gal-I (Rattus norvegicus). Put plainly: Inhibition of rat alpha-2,3-O-ST3GALI assessed as reduction in sialylated-product formation at 1 mM using p-nitrophenyl T-antigen and CMP-NeuSAc incubated for 15 mins by reverse-phase HPLC analysis relative to control.
For data set [12], the species on record is Rattus norvegicus. Briefly: Selectivity ratio of inhibition of rat alpha-2,3-O-ST3GALI at 500 uM to IC50 for inhibition of rat alpha-2,3-N-ST3GALIII.
For data set [13], the species on record is Rattus norvegicus. Briefly: Selectivity ratio of inhibition of rat alpha-2,3-O-ST3GALI at 1000 uM to IC50 for inhibition of rat alpha-2,3-N-ST3GALIII.
Data set [14] is described as follows: Selectivity ratio of IC50 for of inhibition of rat alpha-2,3-O-ST3GALI to IC50 for inhibition of human alpha-2,6-ST6GAL1.
Data set [15] in a line: Toxicity in human MDA-MB-231 cells assessed as cell survival at >60 uM relative to control. Type of data set: cell-based. The settings on record: read-out: Survival.
Data set [16] has as its system MDA-MB-231. Put plainly: Inhibition of serum-induced cell migration of human MDA-MB-231 cells incubated for 16 hrs by Boyden chamber assay. In kind it is functional, cell-based. The following applies: MDA-MB-231, 16 h.
For data set [17], the system named is MDA-MB-231. Briefly: Inhibition of serum-induced cell migration of human MDA-MB-231 cells at 20 uM incubated for 16 hrs by Boyden chamber assay. In kind it is functional, cell-based.
Data set [18] deals with MDA-MB-231. Briefly: Inhibition of Sialyltransferase in human MDA-MB-231 cells assessed as suppression of sialylation of integrin subunit beta1/beta3/beta4/beta5 at 10 to 20 um after 48 hrs by Western blot analysis. In kind it is cell-based. The following applies: dose 10-20 µM. On the technique in general: A western blot detects proteins with antibodies after separation by electrophoresis.

Data set [19] has as its system MDA-MB-231. Briefly: Inhibition of Sialyltransferase in human MDA-MB-231 cells assessed as reduction in integrin isoforms expression (alphaV/alpha5/beta1/beta3/beta4/beta5) at 10 to 20 uM incubated for 48 hrs by immunoblot analysis. In kind it is cell-based. The following applies: dose 10-20 µM.
Data set [20] concerns MDA-MB-231. Briefly: Inhibition of Sialyltransferase in human MDA-MB-231 cells assessed as reduction in FAK Tyr397 phosphorylation level at 10 to 20 uM incubated for 48 hrs by immunoblot analysis. In kind it is cell-based. The settings on record: dose 10-20 µM.
For data set [21], the system named is MDA-MB-231. Put plainly: Inhibition of Sialyltransferase in human MDA-MB-231 cells assessed as reduction in FAK Tyr576/577 phosphorylation level at 10 to 20 uM incubated for 48 hrs by immunoblot analysis. Type of data set: cell-based. The settings on record: dose 10-20 µM.
Data set [22] concerns MDA-MB-231. Put plainly: Inhibition of Sialyltransferase in human MDA-MB-231 cells assessed as reduction in FAK Tyr925 phosphorylation level at 10 to 20 uM incubated for 48 hrs by immunoblot analysis. In kind it is cell-based. The settings on record: dose 10-20 µM.
Data set [23] concerns MDA-MB-231. Briefly: Inhibition of Sialyltransferase in human MDA-MB-231 cells assessed as reduction in paxillin Tyr118 phosphorylation level at 10 to 20 uM incubated for 48 hrs by immunoblot analysis. Type of data set: cell-based. The following applies: dose 10-20 µM.
For data set [24], the system named is MDA-MB-231. Briefly: Inhibition of Sialyltransferase in human MDA-MB-231 cells assessed as reduction in IKKalpha/beta Ser176/180 phosphorylation level at 10 to 20 uM incubated for 48 hrs by immunoblot analysis. In kind it is cell-based. The settings on record: dose 10-20 µM.
Data set [25] has as its system MDA-MB-231. Put plainly: Inhibition of Sialyltransferase in human MDA-MB-231 cells assessed as reduction in IkappaB-alpha Ser32 phosphorylation level at 10 to 20 uM incubated for 48 hrs by immunoblot analysis. In kind it is cell-based. The settings on record: dose 10-20 µM.
In data set [26] the test system is MDA-MB-231. Briefly: Inhibition of Sialyltransferase in human MDA-MB-231 cells assessed as reduction in NFkappaB Ser536 phosphorylation level at 10 to 20 uM incubated for 48 hrs by immunoblot analysis. In kind it is cell-based. The settings on record: dose 10-20 µM.
Data set [27] is described as follows: Apparent permeability at pH 7.4 by PAMPA. Background: PAMPA measures passive passage across an artificial lipid membrane.
The target in data set [28] is T4, Sialyltransferase ST3Gal-I (Rattus norvegicus, UniProt Q6H8N0).
T4 sequence (Q6H8N0 whole entry): T3 sequence (whole entry)
Put plainly: Inhibition of rat alpha-2,3-O-ST3GALI assessed as reduction in sialylated-product formation using p-nitrophenyl T-antigen and CMP-NeuSAc incubated for 15 mins by reverse-phase HPLC analysis.

Data set [29] is filed under the species Rattus norvegicus. Briefly: Selectivity ratio of IC50 for of inhibition of rat alpha-2,3-O-ST3GALI to IC50 for inhibition of rat alpha-2,3-N-ST3GALIII.

Calls of active or inactive are those of the source. No cut-off for these calls is given here. Bounds are passed on as bounds.

`CC(=O)O[C@H]1C(=O)[C@@]2(C)[C@H]([C@H](OC(=O)c3ccccc3)[C@]3(O)C[C@H](OC(=O)[C@H](O)[C@@H](NC(=O)c4ccccc4)c4ccccc4)C(C)=C1C3(C)C)[C@]1(OC(C)=O)CO[C@@H]1C[C@@H]2O`: the outcome in the data set with MDA-MB-231 [1], in the data set on MDA-MB-231 [2], in the data set with MDA-MB-231 [3], in the data set with MDA-MB-231 [4], in the data set on MDA-MB-231 [5] and with MDA-MB-231 [6] was Active.

For the molecule `C[C@H](CCC(=O)OCCOCCOCCOCCN=[N+]=[N-])[C@H]1CC[C@H]2[C@@H]3CC[C@@H]4C[C@H](OC(=O)[C@H](CC(=O)O)Nc5ccc([N+](=O)[O-])c6nonc56)CC[C@]4(C)[C@H]3CC[C@]12C`, the inhibition result was “Dose-dependent effect” with MDA-MB-231 [7]; 0% in [10]; 50% in [11]; “Dose-dependent effect” with MDA-MB-231 [19]; “Dose-dependent effect” in the data set with MDA-MB-231 [20]; “Dose-dependent effect” in the data set on MDA-MB-231 [21]. Besides, the inhibition entry with MDA-MB-231 [22] and in the data set on MDA-MB-231 [23] was “Dose-dependent effect” throughout. For the same molecule, the IC50 turned out to be 1.01 µM in [8], 4.9 µM in [9] and 12 µM in the data set on MDA-MB-231 [16]. The Selectivity ratio in the data set listed under Rattus norvegicus [12] is above 495; in the data set listed under Rattus norvegicus [13] it was below 990. Also, the Ratio IC50 in data set [14] was above 102. The viability in [15] was above 90%. Moreover, the inhibition result in the data set on MDA-MB-231 [17], in the data set on MDA-MB-231 [18], in the data set with MDA-MB-231 [24], in the data set on MDA-MB-231 [25] and with MDA-MB-231 [26] was “Active” throughout. For the same molecule, in data set [27], the Papp came to 9 ×10⁻⁶ cm/s.

With `C[C@H](CCC(=O)O)[C@H]1CC[C@H]2[C@@H]3CC[C@@H]4C[C@H](OC(=O)[C@@H](N)CC(=O)O)CC[C@]4(C)[C@H]3CC[C@]12C`, the IC50 worked out at 12 µM in [8], 15.8 µM in data set [9] and 39 µM in [28]. For the same molecule, the Ratio IC50 (in the data set filed under Rattus norvegicus [29]; in data set [14]) was 3 in each case.

Usually inhibition stands for the change of the read-out against control, counted positive when it falls. The term IC50 denotes the midpoint of a concentration-inhibition curve. In general, Papp refers to a coefficient for how fast a substance crosses the barrier.

The record behind these values is ChEMBL document CHEMBL4765481, “Sialyltransferase Inhibitors Suppress Breast Cancer Metastasis” (J Med Chem, 2021).
